pIC50: −log10 of the molar value. Counter-ions that a name gives are not always drawn.
These molecules were tested on HCT-116 (assay: Cytotoxicity against human HCT-116 cells assessed as cell growth inhibition measured after 48 hrs by MTT assay). Details: HCT-116, 48 h.
Assay type: functional, cell-based

Row | Structure (SMILES) | pIC50
1 | C=C1[C@H]2O[C@@H](OC(=O)/C=C(/C)COC(C)=O)[C@H]3[C@@H]1CC(=O)[C@@]3(CCl)O2 | 5.28
2 | COc1cccc2c1C(=O)c1c(O)c3c(c(O)c1C2=O)C[C@@](O)(C(=O)CO)C[C@@H]3O[C@H]1C[C@H](N)[C@H](O)[C@H](C)O1 [DOXORUBICIN HYDROCHLORIDE] | 6.80
3 | C=C1[C@H]2O[C@@H](OC(=O)/C=C(/C)COC(C)=O)[C@H]3[C@@H]1CC(=O)[C@@]3(CO)O2 | 5.31

— ChEMBL document CHEMBL4825705, “Iridoid Constituents of Viburnum brachybotryum” (J Nat Prod, 2021)
